Data published in ChEMBL document CHEMBL2440091, “The enzyme 3-hydroxykynurenine transaminase as potential target for 1,2,4-oxadiazoles with larvicide activity against the dengue vector Aedes aegypti” (2013).
≈ marks a conversion by molar mass, not a printed value. Calls of active or inactive are those of the source. The calls are words filed in the database; no cut-off is given here.

Key:
[1] = test system: Aedes aegypti; assay: Larvicidal activity against fourth instar larvae of Aedes aegypti assessed as mortality after 48 hrs; format: functional
[2] = test system: Aedes aegypti; assay: Larvicidal activity against fourth instar larvae of Aedes aegypti assessed as induction of alterations in pigmentation pattern at 100 ppm after 24 hrs by microscopic analysis; format: functional, organism-based

SMILES	LC50 [1]	Activity [2]
O=C(O)CCc1nc(-c2ccc(F)cc2)no1	81.2 µg/mL (≈ 344 µM)	–
O=C(O)Cc1nc(-c2ccc(Cl)cc2)no1	49.3 µg/mL (≈ 207 µM)	–
COC(=O)CCc1nc(-c2ccccc2)no1	30.6 µg/mL (≈ 132 µM)	–
CC(=O)CCc1nc(-c2ccccc2)no1	> 100 µg/mL	–
Cc1ccc(-c2noc(CCC(=O)O)n2)cc1	65.8 µg/mL (≈ 283 µM)	–
O=C(O)CCc1nc(-c2ccccc2)no1	98.6 µg/mL (≈ 452 µM)	–
O=C(O)Cc1nc(-c2ccc(Br)cc2)no1	67.9 µg/mL (≈ 240 µM)	–
O=C(O)CCCc1nc(-c2ccccc2)no1	92.7 µg/mL (≈ 399 µM)	–
Cc1cccc(-c2noc(CCCC(=O)O)n2)c1	75.9 µg/mL (≈ 308 µM)	–
O=C(O)CCCc1nc(-c2ccc(I)cc2)no1	16.2 µg/mL (≈ 45.2 µM)	–
O=C(O)CCc1nc(-c2ccc(Br)cc2)no1	15.2 µg/mL (≈ 51.2 µM)	Active
Cc1ccccc1-c1noc(CCC(=O)O)n1	70.9 µg/mL (≈ 305 µM)	–
O=C(O)CCCc1nc(-c2ccc3c(c2)OCO3)no1	72.9 µg/mL (≈ 264 µM)	–
COc1ccc(-c2noc(CCC(=O)O)n2)cc1	71.5 µg/mL (≈ 288 µM)	–
O=C(O)CCCc1nc(-c2ccc(Cl)cc2)no1	34.9 µg/mL (≈ 131 µM)	–
Cc1cccc(-c2noc(CCC(=O)O)n2)c1	63.8 µg/mL (≈ 275 µM)	–
O=C(O)CCc1cc(-c2ccccc2)no1	82.8 µg/mL (≈ 381 µM)	Active
COc1ccc(-c2noc(CCCC(=O)O)n2)cc1	> 100 µg/mL	–
OCCCc1cc(-c2ccccc2)no1	> 100 µg/mL	–
COC(=O)CCCc1nc(-c2ccc(Cl)c(Cl)c2)no1	6.8 µg/mL (≈ 21.6 µM)	–
Cc1ccc(-c2noc(CC(=O)O)n2)cc1	92.3 µg/mL (≈ 423 µM)	–
O=C(O)CCc1nc(-c2ccc([N+](=O)[O-])cc2)no1	50.5 µg/mL (≈ 192 µM)	–
O=C(O)CCc1nc(-c2ccc(Cl)cc2)no1	28.1 µg/mL (≈ 111 µM)	–
COC(=O)CCc1cc(-c2ccccc2)no1	13.2 µg/mL (≈ 57.1 µM)	Active
O=C(O)Cc1nc(-c2ccccc2)no1	> 100 µg/mL	–
O=C(O)CCCc1nc(-c2ccc(Br)cc2)no1	10.6 µg/mL (≈ 34.1 µM)	–
COC(=O)CCCc1nc(-c2ccccc2)no1	59.9 µg/mL (≈ 243 µM)	–
